Test results published in paper doi:10.1101/2023.04.18.537371v1 (bioRxiv, 2023).
Peptide text beside a SMILES is read from it.

Columns and labels:
[1] = Single-dose pharmacokinetics in beagle dogs; type: in vivo, beagle dog; details: for AUC0-last: n=3, mean
[2] = In vitro protein binding, rapid equilibrium dialysis; type: in vitro ADME; details: human, plasma
Plasma stability = type: in vitro ADME, CD-1 mouse
[3] = Metabolite identification in liver microsomes; type: in vitro ADME; details: human liver microsomes, 10 μM, 37 °C, 120 min, NADPH
[4] = Metabolism of FC-12738 in SD rat urine, feces and bile; type: in vivo; details: SC 10 mg/kg FC-12738 single
[5] = Excretion study in SD rats following single subcutaneous administration; type: in vivo, SD rat; details: for Accumulative Dose Recovery: 0 h, n=3, mean
CYP1A2 = target: T1, CYP1A2 (Homo sapiens, UniProt P05177); experiment: biochemical; type: in vitro ADME
T1 sequence (P05177 1-516): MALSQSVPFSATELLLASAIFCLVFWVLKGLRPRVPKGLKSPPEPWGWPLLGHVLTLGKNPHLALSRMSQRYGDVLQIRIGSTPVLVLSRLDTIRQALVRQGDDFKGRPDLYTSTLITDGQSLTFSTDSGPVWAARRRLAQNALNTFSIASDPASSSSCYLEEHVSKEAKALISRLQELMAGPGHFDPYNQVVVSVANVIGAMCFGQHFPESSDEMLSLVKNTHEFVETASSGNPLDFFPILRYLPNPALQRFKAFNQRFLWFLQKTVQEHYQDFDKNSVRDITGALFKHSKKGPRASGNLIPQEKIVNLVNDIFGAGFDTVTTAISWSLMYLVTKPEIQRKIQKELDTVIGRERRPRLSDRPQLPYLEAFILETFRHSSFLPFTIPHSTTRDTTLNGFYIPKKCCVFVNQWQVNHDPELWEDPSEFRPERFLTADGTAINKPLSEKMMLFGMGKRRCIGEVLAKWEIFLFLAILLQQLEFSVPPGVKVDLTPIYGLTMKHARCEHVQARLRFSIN

MATE1 = MATE1 (Homo sapiens, UniProt Q96FL8); experiment: Transporter inhibition in HEK293 cells; type: in vitro ADME
[6] = Plasma and brain levels in male CD-1 mice after a single IP dose; type: in vivo, CD-1 mouse; details: for Tissue Homogenate Conc / Plasma Conc: male CD-1 mice, IP 10 mg/kg single
[7] = male, beagle, dog, plasma, iv, 1 mg/kg
[8] = male, beagle, dog, plasma, sc, 5 mg/kg
[9] = male, SD, rat, urine, sc, 10 mg/kg
[10] = male, Sprague-Dawley, rat, bile, sc, 10 mg/kg
[11] = male, Sprague-Dawley, rat, feces, sc, 10 mg/kg
[12] = male, Sprague-Dawley, rat, urine + feces, sc, 10 mg/kg
[13] = male, Sprague-Dawley, rat, urine, sc, 10 mg/kg
[14] = male, CD-1, mouse, brain homogenate, ip, 10 mg/kg
[15] = male, CD-1, mouse, brain, ip, 10 mg/kg
[16] = male, CD-1, mouse, plasma, ip, 10 mg/kg

MATE1, sequence (Q96FL8 whole entry): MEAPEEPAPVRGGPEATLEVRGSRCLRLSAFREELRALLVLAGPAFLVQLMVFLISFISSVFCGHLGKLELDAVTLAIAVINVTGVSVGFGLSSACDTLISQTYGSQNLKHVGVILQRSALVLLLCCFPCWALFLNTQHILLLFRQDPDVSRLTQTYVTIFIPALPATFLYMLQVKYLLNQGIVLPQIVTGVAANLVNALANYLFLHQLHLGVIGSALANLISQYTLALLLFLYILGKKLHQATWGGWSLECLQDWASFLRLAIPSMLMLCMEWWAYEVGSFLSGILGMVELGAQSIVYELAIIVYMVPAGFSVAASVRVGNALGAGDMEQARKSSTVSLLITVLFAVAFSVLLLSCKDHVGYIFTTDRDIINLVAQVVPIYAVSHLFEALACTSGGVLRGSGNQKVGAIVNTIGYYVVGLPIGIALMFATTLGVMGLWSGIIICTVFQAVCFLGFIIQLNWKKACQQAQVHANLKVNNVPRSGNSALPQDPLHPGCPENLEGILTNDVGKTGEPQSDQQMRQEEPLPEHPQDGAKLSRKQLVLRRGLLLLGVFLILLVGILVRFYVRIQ

CC(C)[C@@H](NC(=O)[C@H](N)Cc1ccc(O)cc1)C(=O)N[C@H](CC(=O)O)C(=O)N[C@H](CCCCN)C(=O)N[C@H](CCCNC(=N)N)C(=O)O [FC-12738, (D-Tyr)-(D-Val)-(D-Asp)-(D-Lys)-(D-Arg)] (HELM PEPTIDE1{[dY].[dV].[dD].[dK].[dR]}$$$$V2.0)
Tolerability / adverse effects in-life ([1]; male beagle dogs, IV 1 mg/kg or SC 5 mg/kg single): No adverse effect was observed | AUC0-last ([1]; male beagle dogs, IV 1 mg/kg single): 2850 ± 439 ng·h/mL | AUC0-last ([1]; male beagle dogs, SC 5 mg/kg single): 16100 ± 2510 ng·h/mL | bioavailability ([1]; male beagle dogs, SC 5 mg/kg, calculated with mean AUC0-last and nominal dose): 112% | AUC(0-inf) [1, 7]: 2900 ng·h/mL | C0 [1, 7]: 4820 ng/mL | Vd [1, 7]: 0.302 L/kg | clearance [1, 7]: 5.85 mL/min/kg | AUC(0-inf) [1, 8]: 16200 ng·h/mL | Cmax [1, 8]: 7300 ng/mL | Tmax [1, 8]: 50 min | half-life [1, 8]: 53 min | fraction unbound at 6 h, 0.2 µM [2]: 0.428 | fraction unbound at 6 h, 2 µM [2]: 0.47 | fraction unbound at 6 h, 10 µM [2]: 0.673 | remaining at 10 min, 2 μM (Plasma stability; CD-1, mouse, plasma): 104% | remaining at 0.5 h, 2 μM (Plasma stability; CD-1, mouse, plasma): 100% | remaining at 1 h, 2 μM (Plasma stability; CD-1, mouse, plasma): 111% | remaining at 2 h, 2 μM (Plasma stability; CD-1, mouse, plasma): 100% | half-life (Plasma stability; CD-1 mouse plasma, 2.00 μM, 37.0 °C, up to 120 min): > 372.7 min | Metabolites detected [3]: No metabolites of FC-12738 were detected | Relative Abundance (MS Peak Area %Total) ([3]; LC-UV-MS): 100.00% | Relative MS abundance (%Total) ([4]; male SD rat bile): 100.00% | Relative MS abundance (%Total) ([4]; male SD rat feces): 100.00% | Relative MS abundance (%Total) ([4]; male SD rat urine): 99.93% | Accumulative Dose Recovery ([5]; bile, male bile-duct-cannulated SD rats, SC 10 mg/kg single): 0.00% | Accumulative Dose Recovery ([5]; feces, male intact SD rats, SC 10 mg/kg single): 0.00% | Tolerability / adverse effects in-life ([5]; male SD rats, SC 10 mg/kg single, excretion study): No adverse effect was observed | dose excreted at 96 h [5, 9]: 86.4% | dose excreted at 120 h [5, 9]: 86.6% | dose excreted at 144 h [5, 9]: 86.7% | dose excreted at 4 h [5, 10]: 0.284% | dose excreted at 12 h [5, 10]: 0.314% | dose excreted at 24 h [5, 10]: 0.324% | dose excreted at 48 h [5, 10]: 0.331% | dose excreted at 72 h [5, 10]: 0.336% | dose excreted at 4 h [5, 11]: 0.00168% | dose excreted at 8 h [5, 11]: 0.00239% | dose excreted at 24 h [5, 11]: 1.74% | dose excreted at 48 h [5, 11]: 2.08% | dose excreted at 72 h [5, 11]: 2.14% | dose excreted at 96 h [5, 11]: 2.16% | dose excreted at 120 h [5, 11]: 2.18% | dose excreted at 144 h [5, 11]: 2.19% | dose excreted at 168 h [5, 11]: 2.19% | dose excreted at 4 h [5, 12]: 56.2% | dose excreted at 8 h [5, 12]: 78.2% | dose excreted at 24 h [5, 12]: 85.8% | dose excreted at 48 h [5, 12]: 88.2% | dose excreted at 72 h [5, 12]: 88.5% | dose excreted at 96 h [5, 12]: 88.6% | dose excreted at 120 h [5, 12]: 88.7% | dose excreted at 144 h [5, 12]: 88.9% | dose excreted at 168 h [5, 12]: 88.9% | dose excreted at 4 h [5, 13]: 56.2% | dose excreted at 8 h [5, 13]: 78.2% | dose excreted at 24 h [5, 13]: 84% | dose excreted at 48 h [5, 13]: 86.1% | dose excreted at 72 h [5, 13]: 86.4% | dose excreted at 168 h [5, 13]: 86.7% | Accumulative Dose Recovery ([5]; total (urine + feces), male intact SD rats, SC 10 mg/kg single): 0.00% | Accumulative Dose Recovery ([5]; urine, male intact SD rats, SC 10 mg/kg single): 0.00% | IC50 (CYP1A2): > 100 µM | IC50 (MATE1): > 100 µM | Tissue Homogenate Conc ([6]; brain homogenate, 0.5 h, animal 2): 17.6 ng/mL | Tissue Homogenate Conc ([6]; brain homogenate, 0.5 h, animal 3): 14.1 ng/mL | Tissue Homogenate Conc ([6]; brain homogenate, 1 h, animal 1): 8.28 ng/mL | Tissue Homogenate Conc ([6]; brain homogenate, 1 h, animal 2): 10.1 ng/mL | Tissue Homogenate Conc ([6]; brain homogenate, 1 h, animal 3): 8.41 ng/mL | Tissue Homogenate Conc ([6]; brain homogenate, 2 h, animal 1): 6.96 ng/mL | Tissue Homogenate Conc ([6]; brain homogenate, 2 h, animal 2): 5.73 ng/mL | Tissue Homogenate Conc ([6]; brain homogenate, 2 h, animal 3): 7.47 ng/mL | Tissue Homogenate Conc ([6]; brain homogenate, 4 h, animal 1): 1.76 ng/mL | Tissue Homogenate Conc ([6]; brain homogenate, 4 h, animal 2): 1.22 ng/mL | Tissue Homogenate Conc ([6]; brain homogenate, 4 h, animal 3): 1.06 ng/mL | level at 0.5 h [6, 14]: 16.4 ng/mL | level at 1 h [6, 14]: 8.93 ng/mL | level at 2 h [6, 14]: 6.72 ng/mL | level at 4 h [6, 14]: 1.35 ng/mL | tissue level at time at 0.5 h [6, 15]: 65.5 ng/g | tissue level at time at 1 h [6, 15]: 35.7 ng/g | tissue level at time at 2 h [6, 15]: 26.9 ng/g | tissue level at time at 4 h [6, 15]: 5.39 ng/g | level at 0.5 h [6, 16]: 2090 ng/mL | level at 1 h [6, 16]: 1210 ng/mL | level at 2 h [6, 16]: 627 ng/mL | level at 4 h [6, 16]: 84.1 ng/mL | level at 8 h [6, 16]: 16.7 ng/mL | Plasma Conc ([6]; plasma, 0.5 h, animal 1, LC-MS/MS): 2230 ng/mL | Plasma Conc ([6]; plasma, 0.5 h, animal 2): 1790 ng/mL | Plasma Conc ([6]; plasma, 0.5 h, animal 3): 2260 ng/mL | Plasma Conc ([6]; plasma, 1 h, animal 1): 885 ng/mL | Plasma Conc ([6]; plasma, 1 h, animal 2): 1320 ng/mL | Plasma Conc ([6]; plasma, 1 h, animal 3): 1420 ng/mL | Plasma Conc ([6]; plasma, 2 h, animal 1): 543 ng/mL | Plasma Conc ([6]; plasma, 2 h, animal 2): 592 ng/mL | Plasma Conc ([6]; plasma, 2 h, animal 3): 745 ng/mL | Plasma Conc ([6]; plasma, 4 h, animal 1): 97.9 ng/mL | Plasma Conc ([6]; plasma, 4 h, animal 2): 74.6 ng/mL | Plasma Conc ([6]; plasma, 4 h, animal 3): 79.8 ng/mL | Plasma Conc ([6]; plasma, 8 h, animal 1): 19.1 ng/mL | Plasma Conc ([6]; plasma, 8 h, animal 2): 17.5 ng/mL | Plasma Conc ([6]; plasma, 8 h, animal 3): 13.4 ng/mL
